Measurements reported in article PMC2063203, “The renal effects of the water-soluble, non-folylpolyglutamate synthetase-dependent thymidylate synthase inhibitor ZD9331 in mice” (British Journal of Cancer, 1998).
Where “and” joins values, the source holds several entries; their conditions need not be identical. Equal values may be shown once. Read-outs that look alike come from different tables or passages of the source.

Experiments:
L5178Y (TK-/-) lymphoma = system: L5178Y (TK-/-) lymphoma; parameters: method as in Stephens et al, 1994; Jackman et al, 1997; conditions: ref Stephens et al, 1994, Jackman et al, 1997, cited from earlier work
[1] = Kidney drug distribution and kidney-plasma ratios (HPLC); type: in vivo, mice; conditions: for Cmax / Tmax / AUC(0-t): mouse, DBA-2 mice; for AUC(0-t): read-out: AUC0-8h
Protocol: British Journal of Cancer (1998) 78(11), 1457-1463 ? […] In contrast to Tomudex (ZD1694), ZD9331 may therefore be active against tumours with low FPGS activity. […] In view of the history of renal toxicity with some earlier TS inhibitors and the possible therapeutic use of bolus ZD9331, we have examined the effects of bolus ZD9331 dose and route of administration on plasma and kidney pharmacokinetics and renal function in mice. Renal function was assessed by measuring [14C]inulin clearance, and drug concentrations were assayed by reverse-phase high-performance liquid chromatography (HPLC). […] Kidney drug concentrations were slightly elevated in iv.- versus i.p.-treated animals at the low dose (50 mg kg-'), with a correspondingly larger area under the curve. However, at the highest dose (200 mg kg-'), peak kidney drug concentrations were 20-fold higher following i.v. administration than after i.p., with marked kidney retention, resulting in a 50-fold greater kidney drug exposure for the i.v. versus the i.p. route. […] These adverse effects can be readily overcome by i.p. administration, indicating the likely need for short infusions in clinical settings. […] Early studies established that nephrotoxicity may be a result of poor aqueous solubility of 2-amino compounds such as CB3717, and it was shown that 2-desamino CB3717 was more water soluble and less nephrotoxic (Jones et al, 1989; 1996). […] These polyglutamate forms also exibit intra- cellular retention, which may contribute to toxicity as well as anti- tumour activity. […] Such compounds might be expected to show activity in a different spectrum of tumours from ZD1694 and to have a more manageable toxicity profile because of the lack of retained cyto- toxic metabolites. […] MATERIALS AND METHODS Drug administration and animals The compound ZD933 1 (Figure 1) was provided as a white crystalline salt. ['4C]inulin was provided as a carboxylic acid (Amersham, UK, 250 µCi in 5 ml, specific activity 6.6 mCi mmol-') and diluted to an activity of 5 µCi ml-' in phosphate-buffered saline (PBS). ZD9331 was dissolved in 0.05 M sodium bicarbonate, 1457 1458 Ml Walton et al ~~ N Ny~~~14COOHH 0 H IN H N CH ~~~~H , 4 H3C N3 H Figure 1 The chemical structure of ZD9331 adjusted to pH 9.0 and administered either i.v. via the tail vein or i.p. at 0.01 ml g-' mouse body weight. [14C]inulin was administered at 0.05 gCi g-' (i.e. 0.01 ml g-') i.v. via the tail vein. Adult female DBA-2 mice were obtained from OLAC (Bicester, UK) and used at 8-12 weeks of age at a body weight of 15-25 g. Mice were housed in cages containing untreated sawdust and allowed access to food and water ad libitum. Sample preparation Plasma and tissue samples were prepared using standard tech- niques (Walton et al, 1996). Briefly, whole blood was obtained by cardiac puncture into heparinized syringes from halothane- anaesthetized mice. Plasma was prepared by centrifugation at 12 000 r.p.m. x 2 min in a bench-top microcentrifuge. Kidney and liver tissues were rapidly removed, washed and snap frozen on dry ice. Frozen plasma and tissues were stored at -20?C for up to 4 weeks prior to analysis. Individual samples were thawed on ice and handled rapidly. ZD9331 was extracted from whole plasma or tissue homogenates (33% w/v in 0.1 M Tris, pH 10.0) by the addition of an equal volume of acetonitrile, mixing and centrifugation and the super- natant removed for injection into the HPLC system. Samples were diluted with Tris buffer (0.1 M, pH 10.0) on to the linear part of the calibration curve prior to HPLC analysis. Extraction efficiencies were >95%. HPLC analysis Concentrations of ZD9331 were measured in biological samples using reversed phase HPLC on equipment supplied by Kontron (Watford, UK). Separations were carried out using stainless-steel columns heated at 45?C and packed with C18 Supelcosil ODS (10 cm x 4.6 mm, 5 µm bead size, Sigma, Dorset) and protected with NewGuard C18 columns (Anachem, Luton, UK). […]

[2] = female, ip, kidney, 50 mg kg-1 i.p.
[3] = female, ip, kidney, 200 mg kg-1 i.p.
[4] = female, iv, kidney, 50 mg kg-1 i.v.
[5] = female, iv, kidney, 200 mg kg-1 i.v.

## C#CCN(Cc1cc2c(=O)[nH]c(C)nc2cc1C)c1ccc(C(=O)N[C@@H](CCc2nnn[nH]2)C(=O)O)c(F)c1 [ZD9331, (2S)-2-{O-fluoro-p-(N-(2,7-dimethyl-4-oxo-3,4-dihydroquinazolin-6-ylmethyl)-N-(prop-2-ynyl)amino}benzamido}-4-(tetrazol-5-yl)butyric acid]
L5178Y (TK-/-) lymphoma; 24-h s.c. infusion, 3 mg kg-1
  anti-tumour activity: anti-tumour activity
L5178Y (TK-/-) lymphoma; bolus administration, 50 mg kg-1
  anti-tumour activity: anti-tumour activity
[1]; 50 mg kg-1
  peak kidney drug level i.p., % lower than i.v.: 80%
[1]; 200 mg kg-1
  kidney AUC0-8h i.p. as % of i.v. route: 1.8%
  kidney drug exposure i.v. versus i.p.: 50 fold
  peak kidney drug concentration i.v. versus i.p.: 20 fold
  peak kidney drug level i.p. as % of i.v. value: 5%
[1]; 200 mg kg-1 i.p.
  kidney-plasma ratio at 8 h: 2 000%
  kidney-plasma ratio relative to the lower dose of 50 mg kg-1: 2-3 times
  kidney-plasma ratio, initial: 20%
[1]; 200 mg kg-1 i.v.
  kidney AUC0-8h: 9660 µM·h
  kidney-plasma ratio after 8 h: 100 000%
  kidney-plasma ratio, initial (measured at 5 min): > 100%
  peak kidney drug level: 3.62 mM
[1]; 200 mg kg-1 i.v. compared with 50 mg kg-1 i.v.
  peak kidney drug level versus lower dose: ~12 fold
[1]; female, DBA-2, mouse, kidney, ip, 50 mg kg-1, 50 mg kg-1 i.p., Discussion, read-out: kidney-plasma ratio, steady-state equilibrium at 4 h
  Kp at 4 h: 2 to 4
[1]; female, DBA-2, mouse, kidney, ip, 50 mg kg-1, 50 mg kg-1 i.p., read-out: kidney-plasma ratio after 1 h
  Kp at 1 h: 1
[1]; female, DBA-2, mouse, kidney, ip, 50 mg kg-1, 50 mg kg-1 i.p., read-out: kidney-plasma ratio, steady-state
  Kp: 1 to 3
[1]; female, DBA-2, mouse, kidney, iv, 50 mg kg-1, 50 mg kg-1 i.v., read-out: kidney-plasma ratio at 30 min
  Kp at 30 min: 10
[1]; female, DBA-2, mouse, kidney, iv, 50 mg kg-1, 50 mg kg-1 i.v., read-out: kidney-plasma ratio, equilibrium at 2 h
  Kp at 2 h: 2 to 3
[1]; female, DBA-2, mouse, kidney, iv, 50 mg kg-1, 50 mg kg-1 i.v., read-out: kidney-plasma ratio, initial
  Kp: 0.35
[1]; female, DBA-2, mouse, kidney, iv, 200 mg kg-1, 200 mg kg-1 i.v., read-out: kidney concentration relative to plasma, plateau
  Kp: 400 to 600
[1]; female, DBA-2, mouse, kidney, iv, 200 mg kg-1, 200 mg kg-1 i.v., read-out: kidney-plasma ratio, initial (measured at 5 min)
  Kp at 5 min: 1
[1]; female, DBA-2, mouse, kidney/plasma, ip, 200 mg kg-1, 200 mg kg-1 i.p., read-out: kidney-plasma ratio, increased steadily to
  Kp: 10 to 20
[1]; female, DBA-2, mouse, kidney/plasma, ip, 200 mg kg-1, 200 mg kg-1 i.p., read-out: kidney-plasma ratio, initial
  Kp: 0.23
[1]; [2]
  Cmax: 31500 ng/g and 59.1 µM
  Tmax: 10 min
  AUC(0-t): 47.5 µM·h
[1]; [3]
  Cmax: 96400 ng/g and 181 µM
  Tmax: 30 min
  AUC(0-t): 179 µM·h
[1]; [4]
  Cmax: 163000 ng/g and 305 µM
  Tmax: 10 min
  AUC(0-t): 240 µM·h
[1]; [5]
  Cmax: 1.9e+06 ng/g and 3.62 mM
  Tmax: 30 min
  AUC(0-t): 9660 µM·h
